Assay [1] concerns type IV pili (T4P) twitching motility. In words: twitching assay (spread under agar, crystal violet staining). It is filed as cell-based, P. aeruginosa. An excerpt:
Since T4P is required for twitching motility, the dispersing compound's effect on a pathogen can be seen in a twitching assay. In this assay, cells are placed underneath agar and allowed to spread from their starting spot along the bottom surface of a Petri dish. The extent of this spread is visualized with crystal violet staining and quantified. In the presence of agar made with LB, WT cells traveled 11±0.7 mm (mean±SD) from the starting spot. […] The effect of MHQ on twitching depended on T4P, as ΔpilA cells that lack T4P traveled similar distances away from the starting spot in the absence of MHQ (1.9±0.1 mm) or in the presence of MHQ (2.3±0.3 mm).

The subject of assay [2] is P. aeruginosa. In words: orientation of surface attachment (vertical vs horizontal) of cells. It counts as cell-based. The note with it: 10 mM MHQ; ntotal=1331; PBS control 76%. On the procedure:
Upon treatment with phosphate buffered saline (PBS), 76% (ntotal=1347) of the cells attached to the surface vertically. In contrast, upon treatment with, e.g., 10 mM MHQ, only 5% (ntotal=1331) of the cells attached to the surface vertically. A similar behavior is found between MHQ-treated WT cells and mutants lacking Type IV pilin subunits (PilA), as only 7% (ntotal=1995) of ΔpilA cells were attached vertically even in PBS treatment.

In assay [3] the test system is T4P activity. Kind of assay: T4P dynamics imaging by cysteine-labeling of PilA. It counts as cell-based, P. aeruginosa. The conditions noted are these: 2 mM MHQ for 5 min; n=493; PBS control 77%. As to the method:
To directly assay the effect of a dispersing compound on T4P activity, the recently developed cysteine-labeling approach can be used to fluorescently label T4P and image their dynamics. This approach uses a cysteine point mutation in an unstructured loop of the PilA pilin subunit to label the pili through maleimide-based click chemistry. In one experiment, the pili of untreated cells were labeled and then imaged T4P dynamics after a brief (5 min) exposure to MHQ or PBS control. Following a 5 min mock treatment with PBS, T4P were seen extending and retracting from 77% of the cells (n=473). […] Since the T4P was labeled before MHQ treatment and the treatment was brief, this effect cannot be attributed to effects of MHQ on TFP expression or labeling. Similar results can be seen with other disclosed dispersing compounds.

The record followed here is patent publication US20220015363A1, “SMALL MOLECULE PATHOGEN DISPERSAL AGENT” (The Trustees of Princeton University, priority 2020, published 2022).

Consider `Cc1cc(O)c2ccccc2n1` [MHQ, 2-methyl-4-hydroxyquinoline], for which the “distance traveled from the starting spot” value in assay [1] (WT cells, agar made with LB and 2 mM MHQ, mean±SD, LB alone 11±0.7 mm) came to 7±0.5 mm; in assay [1] (ΔpilA cells that lack T4P, in the presence of MHQ, without MHQ 1.9±0.1 mm), 2.3±0.3 mm. Moreover, the “cells attached to the surface vertically” value in assay [2] turned out to be 5%. For the same molecule, the “cells exhibiting any T4P extension or retraction events” value in assay [3] came to 4%.
